Experimental data: patent US8722849B2, “Polypeptides” (Novo Nordisk A/S, priority 2011, dated 2014)
≈ marks a conversion by molar mass, not a printed value. Where two headings read alike, the source gives them in different places. Starred links: 1 amine or outer side, 2 acyl side, 3 side chain; linkers in the order of their positions; H or OH if unused. Positions of bridges follow the written chain, without caps; N, C: chain ends. Residues, ends and D or L forms follow the SMILES beside them. Groups on a side chain read outwards from the residue. *: point of attachment. C20 diacid = O=C(O)CCCCCCCCCCCCCCCCCCC(=O)*; γGlu = O=C(O)[C@H](CCC(=O)[*:2])N[*:1]

Experiments:
[1] = Assay (IV) determination of solubility; assay type: physicochemical
Method in brief: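 Solubility is measured across pH 3.0–8.0 by mixing a ~500 nmol/ml aqueous polypeptide stock 1:1 with 100 mM glycylglycine or bistrispropane buffers. Samples stand 18 hours at room temperature, then are centrifuged and the soluble concentration is determined by HPLC.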

[2] = target: T1, human calcitonin receptor (Homo sapiens, UniProt P30988); test: Assay (II)a functional CRE-luciferase assay, human calcitonin receptor; assay type: cell-based; details: Table 7; human calcitonin (CTa) receptor
T1 construct: expressed in transfected cells; host or cells: BHK570
T1 sequence (P30988 25-474): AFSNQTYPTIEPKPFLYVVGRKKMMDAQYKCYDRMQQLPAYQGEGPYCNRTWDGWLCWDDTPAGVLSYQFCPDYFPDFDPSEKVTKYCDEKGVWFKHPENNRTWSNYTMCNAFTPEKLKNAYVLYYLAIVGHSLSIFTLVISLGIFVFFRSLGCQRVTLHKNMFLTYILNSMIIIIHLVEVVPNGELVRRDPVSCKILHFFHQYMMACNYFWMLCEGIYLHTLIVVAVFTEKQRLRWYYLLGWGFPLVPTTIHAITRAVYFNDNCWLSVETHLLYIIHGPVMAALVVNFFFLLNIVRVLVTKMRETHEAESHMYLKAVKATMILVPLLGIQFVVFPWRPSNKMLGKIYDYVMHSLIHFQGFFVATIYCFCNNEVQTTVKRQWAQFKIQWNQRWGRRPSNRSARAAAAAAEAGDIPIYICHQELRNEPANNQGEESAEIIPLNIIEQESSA

food intake = test: Assay (I) efficacy testing on appetite (food intake), ad libitum fed rat model; assay type: in vivo, Sprague Dawley (SD) rats; details: 3 nmol/kg
Method in brief: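 Sprague Dawley rats (200–250 g), single-housed under reversed light cycle with free food and water, got one ip, po or sc dose of 0.01–3 mg/kg just before lights-off. Individual food intake recorded hourly for 7 h, then at 24 h and sometimes 48 h; groups of 5–8, Grubbs outliers excluded.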

[3] = target: T2, human amylin receptor (amylin 3(a) receptor: human calcitonin receptor + RAMP-3) (Homo sapiens, UniProt O60896+P30988); test: Assay (II)a functional CRE-luciferase assay, human amylin receptor; assay type: cell-based
T2 construct: expressed in transfected cells; host or cells: BHK570
T2 sequence (P30988 25-474): T1 sequence (P30988 25-474)
T2 sequence (O60896 24-148 partner): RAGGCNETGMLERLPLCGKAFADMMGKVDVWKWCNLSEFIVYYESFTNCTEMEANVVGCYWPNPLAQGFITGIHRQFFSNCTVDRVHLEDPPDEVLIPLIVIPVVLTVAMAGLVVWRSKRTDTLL

[4] = target: T3, rat amylin 3(a) receptor (rat calcitonin(a) receptor + rat RAMP3) (Rattus norvegicus, UniProt P32214+Q9JJ73); test: Assay (II)b functional cAMP FlashPlate assay, rat amylin receptor; assay type: cell-based; details: Table 11
T3 construct: expressed in transfected cells; host or cells: BHK tk'ts 13
T3 sequence (P32214 25-479 isoform P32214-2 limits assumed): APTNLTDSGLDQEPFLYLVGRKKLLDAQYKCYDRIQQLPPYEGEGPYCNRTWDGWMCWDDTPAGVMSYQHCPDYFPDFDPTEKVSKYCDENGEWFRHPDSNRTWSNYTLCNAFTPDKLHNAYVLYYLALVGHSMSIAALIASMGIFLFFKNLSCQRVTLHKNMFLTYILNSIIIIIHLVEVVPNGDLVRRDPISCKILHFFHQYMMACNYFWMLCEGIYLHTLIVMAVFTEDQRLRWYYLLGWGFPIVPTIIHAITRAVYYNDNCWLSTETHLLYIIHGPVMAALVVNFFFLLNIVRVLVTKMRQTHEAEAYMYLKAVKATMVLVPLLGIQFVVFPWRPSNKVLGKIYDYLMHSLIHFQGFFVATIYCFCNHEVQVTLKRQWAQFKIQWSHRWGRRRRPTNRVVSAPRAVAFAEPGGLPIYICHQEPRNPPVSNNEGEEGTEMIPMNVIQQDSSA
T3 sequence (Q9JJ73 23-147 partner): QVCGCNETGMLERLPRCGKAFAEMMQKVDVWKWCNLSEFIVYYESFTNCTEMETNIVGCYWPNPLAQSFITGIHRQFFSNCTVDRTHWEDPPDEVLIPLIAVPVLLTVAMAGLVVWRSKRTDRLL
Text: (§1) Assay (II)b—Rat Calcitonin and Rat Amylin Receptor Assays
(§2) Activation of calcitonin and amylin (coexpression of calcitonin receptor and receptor activity modifying proteins (RAMP)) receptors lead to increased intracellular concentrations of cAMP. In order to quantify the cAMP levels in transiently transfected cells the Adenylyl Cyclase Activation FlashPlate® Assay from […] was used. The basic principle of the FlashPlate® Assay is a competition between radioactive and non-radioactive cAMP generated by the cells for a fixed number of binding sites.
(§3) Construction of rat calcitonin(a)—and rat amylin 3(a)-receptor cells.
(§4) BHK tk'ts 13 cells were transiently transfected with either rat calcitonin (a) receptor or amylin 3 (a) receptor (rat calcitonin(a) receptor+ rat RAMP3) using FuGENE® 6 (ROCHE), according to the manufacturers recommendations.
(§5) 24 hours after transient transfection the cells (rat calcitonin(a)—or rat amylin 3(a)—receptor cells) were added (100.000 cells/well) to the 96 well FlashPlates® with samples or standard in FlashPlate stimulation buffer with IBMX and incubated for 30 min. Detection mix was created according to manufacturers protocol and scintillation measured after 3 h of incubation on TopCounter™ (Packard).

[5] = target: T4, rat calcitonin (a) receptor (Rattus norvegicus, UniProt P32214); test: Assay (II)b functional cAMP FlashPlate assay, rat calcitonin receptor; assay type: cell-based; details: Table 11; read-out: CTa receptor rat EC50
T4 construct: expressed in transfected cells; host or cells: BHK tk'ts 13
T4 sequence (P32214 25-479 isoform P32214-2 limits assumed): T3 sequence (P32214 25-479 isoform P32214-2 limits assumed)
Text: as §1, §2, §3, §4, §5

[6] = Assay (III) ThT fibrillation assay for physical stability; assay type: physicochemical
Method in brief: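 Freshly prepared formulations, pH-adjusted, with 1 μM ThT; four or eight replicates incubated at 37 °C under 960 rpm orbital shaking. Fluorescence (ex 444/em 485 nm) read every 20 min; […]. Peptide concentration measured by RP-HPLC before and after the run.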

Row | Structure (SMILES) | solubility at 18 h ([1]; bistrispropane buffer, pH 6, pH 6.0, read-out: Solubility pH 6.0) | solubility at 18 h ([1]; bistrispropane buffer, pH 6.5, pH 6.5, read-out: Solubility pH 6.5) | solubility at 18 h ([1]; bistrispropane buffer, pH 7, pH 7.0, 18 hours at room temperature, Table 3, read-out: Solubility pH 7.0) | solubility at 18 h ([1]; bistrispropane buffer, pH 7, pH 7.0, read-out: Solubility pH 7.0) | solubility at 18 h ([1]; bistrispropane buffer, pH 7.5, pH 7.5, read-out: Solubility pH 7.5) | solubility at 18 h ([1]; bistrispropane buffer, pH 8, pH 8.0, read-out: Solubility pH 8.0) | solubility at 18 h ([1]; glycylglycine buffer, pH 3, pH 3.0, read-out: Solubility pH 3.0) | solubility at 18 h ([1]; glycylglycine buffer, pH 4, pH 4.0, 18 hours at room temperature, Table 2, read-out: Solubility pH 4.0) | solubility at 18 h ([1]; glycylglycine buffer, pH 4, pH 4.0, read-out: Solubility pH 4.0) | solubility at 18 h ([1]; glycylglycine buffer, pH 5, pH 5.0, read-out: Solubility pH 5.0) | EC50 [2] | Food intake reduction 0-24 h 3 nmol/kg (%) (food intake) | Food intake reduction 24-48 h 3 nmol/kg (%) (food intake) | EC50 ([3]; Table 2, BHK amylin 3(a)-receptor/CRE-luc cells) | EC50 [4] | EC50 ([3]; Table 6, human amylin receptor) | EC50 [5] | ThT pH 4.0 lag time ([6]; Table 8) | ThT pH 4.0 lag time ([6]; ThT fibrillation assay) | ThT pH 4.0 lag time (h) ([6]; ThT fibrillation assay)
1 | CC[C@H](C)[C@H](NC(=O)[C@@H]1CCCN1C(=O)CNC(=O)[C@H](Cc1ccccc1)NC(=O)[C@H](CC(N)=O)NC(=O)[C@H](CC(N)=O)NC(=O)[C@H](CO)NC(=O)[C@H](CO)NC(=O)[C@H](CCCNC(=N)N)NC(=O)[C@H](Cc1c[nH]cn1)NC(=O)[C@H](CC(C)C)NC(=O)[C@H](Cc1ccccc1)NC(=O)[C@H](CCC(=O)O)NC(=O)[C@H](C)NC(=O)[C@H](CC(C)C)NC(=O)[C@H](CCCNC(=N)N)NC(=O)[C@H](CCC(N)=O)NC(=O)[C@@H](NC(=O)[C@H](C)NC(=O)[C@@H]1CSSC[C@H](NC(=O)CC[C@H](NC(=O)CCCCCCCCCCCCCCCCCCC(=O)O)C(=O)O)C(=O)NCC(=O)N[C@@H]([C@@H](C)O)C(=O)N[C@@H](C)C(=O)N[C@@H]([C@@H](C)O)C(=O)N1)[C@@H](C)O)C(=O)N[C@@H](CC(C)C)C(=O)N1CCC[C@H]1C(=O)N1CCC[C@H]1C(=O)N[C@H](C(=O)N[C@@H](CCC(=O)O)C(=O)N[C@H](C(=O)NCC(=O)N[C@@H](CO)C(=O)NCC(=O)N[C@H](C(=O)N[C@@H](Cc1ccc(O)cc1)C(N)=O)[C@@H](C)O)C(C)C)[C@@H](C)O [Example 3, N-alpha-[(S)-4-Carboxy-4-(19-carboxynonadecanoylamino)butyryl]-[des1,Gly3,Glu14,His17,Arg18,Glu31,Gly35]-pramlintide] ({C20 diacid-γGlu}-CGTATCATQRLAEFLHRSSNNFGPILPPTEVGSGTY-NH2; disulfide 1-6 (inferred)) | > 200 µM | > 200 µM | > 200 µM | > 200 µM | > 200 µM | > 200 µM | > 200 µM | > 200 µM | > 200 µM | 68 µM (≈ 289 µg/mL) | 0.222 nM | 37% | 32% | 0.164 nM | – | – | – | – | – | –
2 | CC(C)C[C@H](NC(=O)[C@H](CCCNC(=N)N)NC(=O)[C@H](CCC(N)=O)NC(=O)[C@@H](NC(=O)[C@H](C)NC(=O)[C@@H]1CSSC[C@H](NC(=O)[C@H](CCC(=O)O)NC(=O)CC[C@H](NC(=O)CCCCCCCCCCCCCCCCCCC(=O)O)C(=O)O)C(=O)NCC(=O)N[C@@H]([C@@H](C)O)C(=O)N[C@@H](C)C(=O)N[C@@H]([C@@H](C)O)C(=O)N1)[C@@H](C)O)C(=O)N[C@@H](C)C(=O)N[C@@H](CCC(=O)O)C(=O)N[C@@H](Cc1ccccc1)C(=O)N[C@@H](CC(C)C)C(=O)N[C@H](C(=O)N[C@@H](CCCNC(=N)N)C(=O)N[C@@H](CO)C(=O)N[C@@H](CO)C(=O)N[C@@H](CO)C(=O)N[C@@H](CO)C(=O)N[C@@H](Cc1ccccc1)C(=O)NCC(=O)N[C@@H](C)C(=O)N1CCC[C@H]1C(=O)N[C@@H](CC(C)C)C(=O)N[C@@H](CO)C(=O)N[C@@H](CO)C(=O)N[C@H](C(=O)N[C@@H](CCC(=O)O)C(=O)N[C@H](C(=O)NCC(=O)N[C@@H](CO)C(=O)N[C@@H](CCCNC(=N)N)C(=O)N[C@H](C(=O)N[C@@H](Cc1ccc(O)cc1)C(N)=O)[C@@H](C)O)C(C)C)[C@@H](C)O)C(C)C [Example 24, N-alpha-[(S)-4-Carboxy-4-(19-carboxynonadecanoylamino)butyryl]-[Glu1,Gly3,Glu14,Arg18,Ser21,Ser22,Ala25,Pro26,Ser28,Ser29,Glu31,Arg35]-pramlintide] ({C20 diacid-γGlu}-ECGTATCATQRLAEFLVRSSSSFGAPLSSTEVGSRTY-NH2; disulfide 2-7 (inferred); C-terminus assumed) | – | – | – | – | – | – | – | – | – | – | 0.672 nM | – | – | – | 4.51 nM | 1.44 nM | 1.75 nM | – | – | –
3 | CC[C@H](C)[C@H](NC(=O)[C@@H]1CCCN1C(=O)CNC(=O)[C@H](Cc1ccccc1)NC(=O)[C@H](CC(N)=O)NC(=O)[C@H](CC(N)=O)NC(=O)[C@H](CO)NC(=O)[C@H](CO)NC(=O)[C@H](Cc1c[nH]cn1)NC(=O)[C@H](Cc1c[nH]cn1)NC(=O)[C@H](CC(C)C)NC(=O)[C@H](Cc1ccccc1)NC(=O)[C@H](CCC(=O)O)NC(=O)[C@H](C)NC(=O)[C@H](CC(C)C)NC(=O)[C@H](CCCNC(=N)N)NC(=O)[C@H](CCC(N)=O)NC(=O)[C@@H](NC(=O)[C@H](C)NC(=O)[C@@H]1CSSC[C@H](NC(=O)[C@@H](N)CCCCNC(=O)CC[C@H](NC(=O)CCCCCCCCCCCCCCCCCCC(=O)O)C(=O)O)C(=O)N[C@@H](CC(N)=O)C(=O)N[C@@H]([C@@H](C)O)C(=O)N[C@@H](C)C(=O)N[C@@H]([C@@H](C)O)C(=O)N1)[C@@H](C)O)C(=O)N[C@@H](CC(C)C)C(=O)N1CCC[C@H]1C(=O)N1CCC[C@H]1C(=O)N[C@H](C(=O)N[C@@H](CC(N)=O)C(=O)N[C@H](C(=O)NCC(=O)N[C@@H](CO)C(=O)N[C@@H](Cc1c[nH]cn1)C(=O)N[C@H](C(=O)N[C@@H](Cc1ccc(O)cc1)C(N)=O)[C@@H](C)O)C(C)C)[C@@H](C)O [Example 87, N-epsilon1-[(S)-4-Carboxy-4-(19-carboxynonadecanoylamino)butyryl]-[Glu14,His17,His35]-pramlintide] (H-K([γGlu-C20 diacid])CNTATCATQRLAEFLHHSSNNFGPILPPTNVGSHTY-NH2; disulfide 2-7 (inferred)) | – | – | – | – | – | – | – | – | – | – | – | 66% | 47% | – | – | – | – | 25 h | 25 h | 25 h
